In the SangsterLogP compilation one finds logP and logD data, which are given here for 30 compounds.

Series [1] is described as follows: method code SF-HPLC, from DOI: 10.1021/js980008v, PMID: 9758683.
Experiment in series [2]: not given
The source holds these as a separate data set.

The nature of series [3]: method code SF-GLC, from DOI: 10.1897/1552-8618(1989)8[499:dowpcf]2.0.co;2.
Experiment in series [4]: not given
The source holds these as a separate data set.

Experiment in series [5]: not given
This is another data set of the same source.

Series [6] in a line: method code SF-AS, from DOI: 10.2307/3574491, PMID: 940937. The note with it: pH 7.4.
Experiment in series [7]: not given
This is another data set of the same source.

Experiment in series [8]: not given
This is another data set of the same source.

Series [9] in a line: method code SF-AS, from DOI: 10.1023/a:1021720128725.
Series [10] in a line: method code SF, from ISBN: 9780815518525. The conditions noted are these: pH 7.0.
Experiment in series [11]: not given
This is another data set of the same source.

Experiment in series [12]: not given
This is another data set of the same source.

Series [13] can be described thus: method code SF, from ISBN: 9780444415486.
The conditions of series [14]: pH 6.0.
A short description of series [15]: method code SF-HPLC, from DOI: 10.13422/j.cnki.syfjx.2013.03.051.
Experiment in series [16]: not given
The source holds these as a separate data set.

Series [17] in a line: method code SF, from ISBN: 9780948404450.

As a reminder, the logP is the decadic logarithm of the partition coefficient of the neutral form, usually between octanol and water. Read a high logP as higher lipophilicity. For `O=C1NC(c2ccccc2)(c2ccccc2)C(=O)N1CO`, the logP in series [1] was 2.23.

The compound `O=C(O)c1ccccc1C(=O)Nc1cccc2ccccc12` came in with a logP of 3.

`Nc1ccccc1` had a logP in [2] of 1.08.

Regarding `CCc1ccc2c(c1)C(=O)c1ccccc1C2=O`, the logP in [3] stood at 4.37.

`O=C1NC(=O)C(c2ccccc2)(c2ccccc2)N1` registered a logP in series [1] of 2.21.

Turning to `CSc1nc(NC(C)C)nc(NC(C)C)n1`, the logP in [4] is 3.36.

In the case of `OCCN(CCO)CCO`, the logP in series [5] was -1.32.

Broadly, the logD is the decadic logarithm of the distribution of all forms, ionised or not, between an organic phase and buffer at a given pH. The low end stands for a more hydrophilic compound, the high end for a more lipophilic compound. `COC(=O)CCn1c(C)cnc1[N+](=O)[O-]`: in [6], the pH-dependent lipophilicity (logD) is -0.25.

Consider `CC(=O)Nc1cc(C(C)(C)C)c(O)cc1C`, for which, in series [7], the logP was found to be 2.18.

`c1ccc(Oc2cccc(-c3ccccc3)c2)cc1` gave a logP in [5] of 5.55.

Take `O=C(O)c1c(O)cccc1O`: in series [8], the lipophilicity (logP) was found to be 1.23.

In [9], `Nc1nc2c(ncn2COCCO)c(=O)[nH]1` returned a logP of -1.44.

Regarding `CNC(=O)N(C)c1nnc(C(C)(C)C)s1`, the logD in series [10] is 1.79.

On to `Cc1ccccc1/C=C/[N+](=O)[O-]`, for which the logP in series [11] was found to be 2.63.

Compound `Cc1ccccc1C(=N)c1ccccc1C` displayed a logP in series [7] of 3.31.

`CCCCNCCCC` came in with a logP in [5] of 2.68.

`Oc1ccccc1` returned a logP in [12] of 1.6.

Compound `CN1C(=O)OC(c2ccccc2)C1=O` (stereo not given) yielded a log partition coefficient (logP) in series [13] of 1.06.

On to `CC(=O)[C@H]1CC[C@H]2[C@@H]3CCC4=CC(=O)CC[C@]4(C)[C@H]3CC[C@]12C`, for which the pH-dependent lipophilicity (logD) in series [14] was 3.7.

With `CC(C)(C)c1cn2c(=O)c3ncn(COCCO)c3nc2[nH]1`, in series [9], the logP came out at 0.62.

Take `CCCC(=O)OCN1C(=O)NC(c2ccccc2)(c2ccccc2)C1=O`: in [1], the logP was determined as 3.9.

In the case of `O=C1C=CC[C@@H]2[C@H]3CCC[N+]4([O-])CCC[C@@H](CN12)[C@@H]34` (stereo not given in full), the logP in series [15] is -0.44.

Compound `N#Cc1cc(Br)c(O)c(Br)c1` registered a logP of 2.7.

In series [9], `Cc1cn2c(=O)c3c(nc2[nH]1)N(COCCO)C(Br)N3` (stereo not given) returned a lipophilicity (logP) of -0.11.

Regarding `Clc1cc(Cl)c(Cl)cc1Cl`, the log partition coefficient (logP) in series [3] came to 4.6.

Consider `OCCOCCOCCOCCO`, for which the logP in series [5] was -1.38.

In turn, `CC(=O)OCN1C(=O)NC(c2ccccc2)(c2ccccc2)C1=O` yielded a logP in series [1] of 2.8.

`O=[N+]([O-])c1nccn1CC(O)CO` (stereo not given) came in with a log distribution coefficient (logD) in series [6] of -0.96.

The compound `CCS(=O)CCSP(=O)(OC)OC` (stereo not given) returned a logP in [16] of -0.74.

In series [17], `CCS(=O)c1sc(C#N)c(Cl)c1C#N` (stereo not given) registered a logP of 2.54.
